Assay results as given in US20210330611A1, “THERAPY FOR NEUROLOGICAL DISEASES/DISORDERS” (priority 2020, published 2021).
“And” between values parts separate entries of the source, which are not always exact repeats. Equal values may be shown once. Where a name gives a salt, the structure may show the parent alone. Read-outs that look alike come from different tables or passages of the source.

Tests used:
primary rat microglia [1] = tested on: primary rat microglia
primary rat microglia [2] = experiment: Cell toxicity (dead cells, size <150 μm2) in coated fibrin (cFib) assay; conditions: primary microglia HTS;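 also: share of dead cells sized under 150 µm2 at 10 µM in fibrin-stimulated microglia HTS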
[3] = tested on: LPS-induced microglia activation; experiment: Image-based assay of LPS-induced microglia activation (HTS and dose response); format: cell-based, rat
[4] = tested on: fibrin- and LPS-induced microglia activation; experiment: cells; format: cell-based, rat; conditions: for inhibition at 10 µM: Rattus norvegicus, Microglia
[5] = tested on: fibrin-induced microglia activation; experiment: Image-based assay of fibrin-induced microglia activation (HTS and dose response); format: cell-based, rat; conditions: for inhibition at 10 µM / IC50: Rattus norvegicus, Microglia; for inhibition at 10 µM: read-out: Fibrin % inhibition
[6] = fibrin assay, dead cells (size <150 μm2), compounds at 10 μM
[7] = primary microglia HTS, LPS stimulation, compounds at 10 μM
[8] = classification by fibrin and LPS inhibition, HTS at 10 μM
[9] = primary microglia HTS, fibrin stimulation, compounds at 10 μM
[10] = Rattus norvegicus, Microglia, primary microglia HTS, LPS stimulation, compounds at 10 μM; read-out: LPS % inhibition
[11] = fibrin stimulation, cell size <150 μm2 as marker of toxicity
[12] = classification by fibrin and LPS inhibition in HTS
[13] = Rattus norvegicus, Microglia, 48 h; read-out: LPS % inhibition
[14] = fibrin assay, dead cells (size <150 μm2)
[15] = quadrant by fibrin and LPS inhibition, HTS at 10 μM
[16] = Rattus norvegicus, Microglia, 48 h, read-out: LPS % inhibition
[17] = primary microglia HTS, fibrin stimulation, cell size >800 μm2 as marker of activation
[18] = Rattus norvegicus, Microglia, read-out: LPS % inhibition
[19] = quadrant by fibrin and LPS inhibition in HTS of 1907 compounds
[20] = primary microglia HTS, fibrin stimulation, activation = cell size >800 μm2
[21] = Rattus norvegicus, Microglia, primary HTS, 10 μM, LPS-stimulated primary microglia; read-out: LPS % inhibition
[22] = primary HTS, 10 μM, fibrin-stimulated primary microglia
[23] = primary microglia HTS, fibrin stimulation, compounds at 10 μM, 10 µM
[24] = primary microglia HTS, LPS stimulation, compounds at 10 μM; 10 µM
[25] = Rattus norvegicus, Microglia, 48 h, primary microglia HTS, LPS stimulation; increased cell size (>800 μm^2) as marker of activation; read-out: LPS % inhibition
[26] = primary microglia HTS, fibrin stimulation, increased cell size (>800 μm^2) as marker of activation

O=S(=O)([O-])CCSSCCS(=O)(=O)[O-].[Na+].[Na+] [Dimesna]
LPS % cell toxicity (primary rat microglia [1]): 0%
Fibrin % cell toxicity (primary rat microglia [2]; [6]): 1%
LPS % inhibition [3, 7]: 13%
Quadrant (FIG. 5b) [4, 8]: Q4
Fibrin % inhibition [5, 9]: −19%

CCCCC(O)c1ccccc1 (centres unmarked) [Fenipentol]
LPS % cell toxicity (primary rat microglia [1]): 0%
Fibrin % cell toxicity (primary rat microglia [2]; [6]): 1%
LPS % inhibition [3, 7]: 25%
Quadrant (FIG. 5b) [4, 8]: Q4
Fibrin % inhibition [5, 9]: −1%

O=C(CCCl)NCCc1ccccc1 [Fenaclon]
LPS % cell toxicity (primary rat microglia [1]; rat): 0%
Fibrin % cell toxicity (primary rat microglia [2]; [6]): 1%
inhibition at 10 µM [3, 10]: 16%
Quadrant (FIG. 5b) [4, 8]: Q4
inhibition at 10 µM [5, 9]: 8%

COc1ccccc1OCC(O)CN1CCN(CC(=O)Nc2c(C)cccc2C)CC1 (centres unmarked) [Ranolazine, Ranolazine Dihydrochloride]
LPS % cell toxicity (primary rat microglia [1]): 0%
Fibrin % cell toxicity (primary rat microglia [2]; [11]): 0% and 1%
LPS % inhibition [3]: 12% and 2%
Quadrant (FIG. 5b) [4, 12]: Q4

OC[C@@H](O)[C@@H](O)[C@H](O)[C@@H](O)CO [Sorbitol]
LPS % cell toxicity (primary rat microglia [1]; rat): 0%
Fibrin % cell toxicity (primary rat microglia [2]; [11]): 1% and 0%
Quadrant (FIG. 5b) [4, 12]: Q4

CCN(C)C(=O)Oc1cccc([C@H](C)N(C)C)c1 [Rivastigmine]
LPS % cell toxicity (primary rat microglia [1]; rat): 0%
Fibrin % cell toxicity (primary rat microglia [2]; [11]): 1%
inhibition at 10 µM [3, 13]: 5%
Quadrant (FIG. 5b) [4, 12]: Q4

COc1ccc(C[C@H](N)C(=O)N[C@H]2[C@@H](O)[C@H](n3cnc4c(N(C)C)ncnc43)O[C@@H]2CO)cc1.Cl.Cl
LPS % cell toxicity (primary rat microglia [1]): 52%
Fibrin % cell toxicity (primary rat microglia [2]; [14]): 66%
LPS % inhibition [3, 7]: 124%
Quadrant (FIG. 5b) [4, 15]: Q2

C#CCN(C)[C@H](C)Cc1ccccc1 [Selegiline]
LPS % cell toxicity (primary rat microglia [1]; rat): 0%
Fibrin % cell toxicity (primary rat microglia [2]; [11]): 0% and 1%
Quadrant (FIG. 5b) [4, 12]: Q4

NC(=O)c1ncn([C@@H]2O[C@H](CO)[C@@H](O)[C@H]2O)n1 [Ribavirin, reference compound]
LPS % cell toxicity (primary rat microglia [1]; rat): 3%
inhibition at 10 µM [3, 16]: 107%
IC50 ([3]; Rattus norvegicus, Microglia, 48 h, read-out: LPS IC50): 2 µM
IC50 ([3]; Rattus norvegicus, Microglia, read-out: LPS IC50 (uM)): 2 µM
IC50 ([3]; Rattus norvegicus, Microglia, read-out: LPS IC50 (uM) (Suppl. Table 7)): 2 µM
Quadrant (FIG. 5b) [4]: Q2
inhibition at 10 µM ([4]; read-out: Cherry-picked Hit (Suppl. Table 7)): > 50%
inhibition at 10 µM ([4]; read-out: Hit): > 50%
IC50 ([5]; 48 h, read-out: Fibrin IC50): 1 µM
inhibition at 10 µM [5]: 102%
IC50 ([5]; read-out: Fibrin IC50 (uM)): 1 µM
IC50 ([5]; read-out: Fibrin IC50 (uM) (Suppl. Table 7)): 1 µM

CC(=O)Oc1cc2c(s1)CCN(C(C(=O)C1CC1)c1ccccc1F)C2 (centres unmarked) [Prasugrel]
LPS % cell toxicity (primary rat microglia [1]; rat): 1%
inhibition at 10 µM [3, 13]: 22%
Quadrant (FIG. 5b) [4, 12]: Q4
inhibition at 10 µM [5, 17]: 15%

OCCOCCN1CCN(C2=Nc3ccccc3Sc3ccccc32)CC1 [Quetiapine]
LPS % cell toxicity (primary rat microglia [1]; rat): 0%
inhibition at 10 µM [3, 16]: 13%
Quadrant (FIG. 5b) [4]: Q4
inhibition at 10 µM [5]: -2%

Cc1ccc(O)c([C@H](CCN(C(C)C)C(C)C)c2ccccc2)c1 [Tolterodine]
LPS % cell toxicity (primary rat microglia [1]; rat): 0%
inhibition at 10 µM [3, 18]: 15%
Quadrant (FIG. 5b) [4]: Q4
inhibition at 10 µM [5]: -36%

CSCC[C@H](NC(=O)[C@H](Cc1c[nH]c2ccccc12)NC(=O)CCNC(=O)OC(C)(C)C)C(=O)N[C@@H](CC(=O)O)C(=O)N[C@@H](Cc1ccccc1)C(N)=O [Pentagastrin]
LPS % cell toxicity (primary rat microglia [1]): 1%
Fibrin % cell toxicity (primary rat microglia [2]; [11]): 1%

CCN1CCN(C(=O)N[C@@H](C(=O)N[C@@H]2C(=O)N3[C@@H]2SC(C)(C)[C@@H]3C(=O)O)c2ccccc2)C(=O)C1=O [Piperacillin]
LPS % cell toxicity (primary rat microglia [1]; rat): 2%
inhibition at 10 µM [3, 10]: 80%
Quadrant (FIG. 5b) [4, 15]: Q2
inhibition at 10 µM [5, 9]: 103%

NCCc1c[nH]cn1 [Histamine]
LPS % cell toxicity (primary rat microglia [1]; rat): 0%
inhibition at 10 µM [3, 16]: 27%
Quadrant (FIG. 5b) [4]: Q4
inhibition at 10 µM [5]: 21%

COc1ccc(Cl)cc1C(=O)NCCc1ccc(S(=O)(=O)NC(=O)NC2CCCCC2)cc1 [Glibenclamide, Glyburide]
LPS % cell toxicity (primary rat microglia [1]): 0%
LPS % inhibition ([3]; primary microglia HTS, LPS stimulation, activation = cell size >800 μm2): 8%
Quadrant (FIG. 5b) [4, 19]: Q4
Fibrin % inhibition [5, 20]: −23%

O=P1(NCCCl)OCCCN1CCCl (centres unmarked) [Ifosfamide]
LPS % cell toxicity (primary rat microglia [1]; rat): 0%
inhibition at 10 µM ([3]; Rattus norvegicus, Microglia, 48 h, primary microglia HTS, LPS stimulation, activation = cell size >800 μm2; read-out: LPS % inhibition): 10%
Quadrant (FIG. 5b) [4, 19]: Q4
inhibition at 10 µM [5, 20]: -11%

O=C(CCCl)NCc1ccccc1 [Beclamide]
LPS % cell toxicity (primary rat microglia [1]; rat): 0%
inhibition at 10 µM [3, 10]: 2%
Quadrant (FIG. 5b) [4, 15]: Q4
inhibition at 10 µM [5, 9]: 19%

Cc1c(C(N)=O)cc([N+](=O)[O-])cc1[N+](=O)[O-] [Dinitolmide]
LPS % cell toxicity (primary rat microglia [1]; rat): 0%
inhibition at 10 µM [3, 18]: 10%
Quadrant (FIG. 5b) [4]: Q4
inhibition at 10 µM [5]: -45%

CNC[C@H](O)c1ccc(O)c(O)c1.O=C(O)C(O)C(O)C(=O)O
LPS % cell toxicity (primary rat microglia [1]): 0%
LPS % inhibition ([3]; 10 µM): 19%
Quadrant (FIG. 5b) [4]: Q4
Fibrin % inhibition ([5]; 10 µM): 35%

CN(C)c1nc(N(C)C)nc(N(C)C)n1 [Altretamine]
LPS % cell toxicity (primary rat microglia [1]; rat): 0%
inhibition at 10 µM [3, 10]: 16%
Quadrant (FIG. 5b) [4, 15]: Q4
inhibition at 10 µM [5, 9]: -29%

OC(CCN1CCCCC1)(c1ccccc1)C1CC2C=CC1C2 (centres unmarked) [Biperiden]
LPS % cell toxicity (primary rat microglia [1]; rat): 1%
inhibition at 10 µM [3, 21]: 17%
Quadrant (FIG. 5b) ([4]; primary HTS, 10 μM): Q4
inhibition at 10 µM [5, 22]: 2%

CCOC(=O)c1cncn1[C@H](C)c1ccccc1 [Etomidate]
LPS % cell toxicity (primary rat microglia [1]; rat): 0%
Fibrin % cell toxicity (primary rat microglia [2]; [6]): 0%
Quadrant (FIG. 5b) [4, 8]: Q4
Fibrin % inhibition [5, 23]: −19% and −24%

CCCCOc1ccc(C(=O)CCN2CCCCC2)cc1 [Dyclonine]
LPS % cell toxicity (primary rat microglia [1]; rat): 0%
Fibrin % cell toxicity (primary rat microglia [2]; [6]): 1%
LPS % inhibition [3, 24]: 12% and 5%
Quadrant (FIG. 5b) [4, 8]: Q4

O=C(O)Cc1ccccc1 [Phenylacetic acid]
LPS % cell toxicity (primary rat microglia [1]; rat): 0%
Fibrin % cell toxicity (primary rat microglia [2]; [11]): 1%
Quadrant (FIG. 5b) [4, 12]: Q4

CC(C)(CO)[C@@H](O)C(=O)NCCC(=O)O [Pantothenic Acid]
LPS % cell toxicity (primary rat microglia [1]; rat): 1%
inhibition at 10 µM [3, 25]: 5%
Quadrant (FIG. 5b) [4, 19]: Q4
inhibition at 10 µM [5, 26]: 7%

C[C@H]1[C@H](NC(=O)/C(=N\OC(C)(C)C(=O)O)c2csc(N)n2)C(=O)N1S(=O)(=O)O [Aztreonam]
LPS % cell toxicity (primary rat microglia [1]; rat): 0%
Fibrin % cell toxicity (primary rat microglia [2]; [14]): 1% and 0%
Quadrant (FIG. 5b) [4, 15]: Q4

COCCOC(=O)C1=C(C)NC(C)=C(C(=O)OC(C)C)C1c1cccc([N+](=O)[O-])c1 (centres unmarked) [Nimodipine]
LPS % cell toxicity (primary rat microglia [1]; rat): 0%
inhibition at 10 µM [3, 25]: 2%
Quadrant (FIG. 5b) [4, 19]: Q4
inhibition at 10 µM [5, 26]: -6%

O=C(O[C@H]1CN2CCC1CC2)N1CCc2ccccc2[C@@H]1c1ccccc1 [Solifenacin Succinate]
LPS % cell toxicity (primary rat microglia [1]; rat): 0%
inhibition at 10 µM [3, 13]: -4%
Quadrant (FIG. 5b) [4, 12]: Q4
inhibition at 10 µM [5, 17]: -2%

O=C(N[C@H](CO)[C@H](O)c1ccc([N+](=O)[O-])cc1)C(Cl)Cl [Chloramphenicol]
LPS % cell toxicity (primary rat microglia [1]; rat): 0%
inhibition at 10 µM [3, 21]: 6%
Quadrant (FIG. 5b) ([4]; primary HTS, 10 μM): Q4
inhibition at 10 µM [5, 22]: 19%

CC(=O)O[C@H]1C[C@@H]2CC[C@@H]3[C@H](CC[C@@]4(C)[C@H]3C[C@H]([N+]3(C)CCCCC3)[C@@H]4OC(C)=O)[C@@]2(C)C[C@@H]1[N+]1(C)CCCCC1 [Pancuronium]
LPS % cell toxicity (primary rat microglia [1]; rat): 0%
LPS % inhibition ([3]; primary microglia HTS, LPS stimulation; increased cell size (>800 μm^2) as marker of activation): 1%
Quadrant (FIG. 5b) [4, 19]: Q4
Fibrin % inhibition [5, 26]: −4%

CO[C@H]1O[C@@H]2O[C@@]3(C)CC[C@H]4[C@H](C)CC[C@@H]([C@H]1C)[C@@]24OO3 [Artemether]
LPS % cell toxicity (primary rat microglia [1]; rat): 0%
Fibrin % cell toxicity (primary rat microglia [2]; [14]): 1% and 0%
LPS % inhibition [3, 24]: 0% and 4%
Quadrant (FIG. 5b) [4, 15]: Q4

COc1ccc(CC2c3cc(OC)c(OC)cc3CC[N+]2(C)CCC(=O)OCCCCCOC(=O)CC[N+]2(C)CCc3cc(OC)c(OC)cc3C2Cc2ccc(OC)c(OC)c2)cc1OC (centres unmarked) [Atracurium Besylate]
LPS % cell toxicity (primary rat microglia [1]; rat): 0%
Fibrin % cell toxicity (primary rat microglia [2]; [14]): 0% and 1%
Quadrant (FIG. 5b) [4, 15]: Q4
Fibrin % inhibition [5, 23]: −3% and 2%
